Test results reported in patent publication US20210244721A1, “SMALL MOLECULE ENTEROVIRUS INHIBITORS AND USES THEREOF” (priority 2020, published 2021).
One block for each compound: values may come before it.

What was measured:
in vitro [1] = settings: human
[2] = tested on: EV-D68 US/KY/14-18953 virus; assay: CPE assay, EV-D68 US/KY/14-18953 in RD cells; assay type: cell-based, Enterovirus D68 (EV-D68); settings: EV-D68 US/KY/14-18953, RD cells
EV-D68 US/MO/14-18949 = assay: CPE assay, EV-D68 US/MO/14-18949 in RD cells; settings: EV-D68 US/MO/14-18949, RD cells
HeLa = assay: Cytotoxicity in HeLa cells
A549 = assay: Cytotoxicity in A549 cells
EV-D68 US/IL/14-18956 = assay: CPE assay, EV-D68 US/IL/14-18956 in RD cells; settings: EV-D68 US/IL/14-18956, RD cells
EV-D68 UA/IL/14-18952 = assay: CPE assay, EV-D68 UA/IL/14-18952 in RD cells; settings: EV-D68 UA/IL/14-18952, RD cells
RD cells = assay: Cytotoxicity, neutral red method, RD cells; settings: RD cells, neutral red method
EV-D68 US/MO/14-18947 = assay: CPE assay, EV-D68 US/MO/14-18947 in RD cells; settings: EV-D68 US/MO/14-18947, RD cells
EV-A71 US/AK/16-19516 = assay: CPE assay, EV-A71 US/AK in RD cells; assay type: cell-based; settings: Enterovirus A, EVA71
EV-A71 Tainan/4643/98 = assay: CPE assay, EV-A71 Tainan in RD cells; assay type: cell-based; settings: Enterovirus A, EVA71; EV-A71 Tainan, RD cells; read-out: EC50
CVB3 = assay: CPE assay, CVB3 in Vero C1008 cells; assay type: cell-based, coxsackievirus B3 (CVB3); settings: Enterovirus B; CVB3, Vero C1008 cells; read-out: EC50
[3] = Mouse microsomal stability; assay type: in vitro ADME; settings: mouse liver microsomes
Procedure: Test compounds were incubated at 37° C. with liver microsomes (mouse or human) (Xenotech) at 1 μM drug concentration in the presence of a NADPH regenerating system at 0.5 mg/ml microsomal protein. Testosterone (3A4 substrate), Propafenone (2D6), and Diclofenac (2C9) were included as positive controls. Compounds were incubated with microsomes in the presence of a NADPH regenerating system (Sigma, Cat. No. N0505, Lot SLBH3107V). Aliquots at 0, 5, 10, 20, 30 and 60 minutes post incubation were collected and immediately mixed with cold acetonitrile containing internal standard (IS). Compounds incubated with microsomes without NADPH regenerating system for 60 minutes were also included. All the samples were analyzed by LC/MS/MS; disappearance of test compound were assessed based on peak area ratios of analyte/IS. Following equations were applied to calculate the microsome clearance: […]

in vitro [4] = settings: African green monkey

SMILES: O=C(NC1C2CNCC21)c1cc(-c2cccs2)nc2ccccc12 (stereo not drawn) [Compound 6bk, N-{3-azabicyclo[3.1.0]hexan-6-yl}b-2-(thiophen-2-yl)quinoline-4-carboxamide]
CC50 at 3 days (in vitro [1]): 34.5 µM
SI = selectivity index (CC50/EC50) [2]: SI50 = 5.4
EC50 ([2]; Enterovirus D, EVD68, RD, CPE assay, read-out: EC50): 6.4 µM

SMILES: O=C(NCCN1CCCC1)c1cc(-c2cccs2)nc2ccccc12 [drawing 130]
SI (CC50/EC50) (EV-D68 US/MO/14-18949): 800
CC50 (HeLa): 41.7 µM
CC50 (A549): 83.2 µM
SI (CC50/EC50) (EV-D68 US/IL/14-18956): 800
SI = selectivity index (CC50/EC50) [2]: 666.7
SI (CC50/EC50) (EV-D68 UA/IL/14-18952): 571.4
CC50 (RD cells): 40 µM
SI (CC50/EC50) (EV-D68 US/MO/14-18947): 666.7
EC50 (EV-D68 US/MO/14-18947; Enterovirus D, EVD68, RD): 0.06 µM

SMILES: CN(C)CCNC(=O)c1cc(-c2ccccc2)nc2ccccc12 [drawing 181]
EC50 (EV-A71 US/AK/16-19516): > 10 µM
EC50 (EV-A71 Tainan/4643/98): 4.2 µM
EC50 (CVB3): 0.3 µM
half-life at 1 μM ([3]; 1 μM, NADPH, read-out: Mouse microsomal stability T1/2): 22.4 min
CLint scaled at 1 μM ([3]; scaled to liver): 246 mL/min/kg
EC50 (EV-D68 US/MO/14-18947): 0.2 µM

EC50 (EV-A71 Tainan/4643/98): > 20 µM
SMILES: Cc1ccc2c(c1)c1c3n2CCNC3CCC1 (stereo not drawn) [drawing 197]
CC50 at 3 days (in vitro [4]): 40.5 µM
CC50 at 3 days (in vitro [1]): 19 µM
